The subject of one experiment is A-375. The experiment can be described thus: Protac activity at E3 ubiquitin-protein ligase/B-raf V600E mutant in human A375 cells assessed as induction of B-raf V600E degradation measured after 72 hrs by Western cellular assay relative to control. Format: cell-based.
Experiment [1] can be described thus: Protac activity at E3 ubiquitin-protein ligase/B-raf V600E mutant in human A375 cells assessed as induction of B-raf V600E degradation measured after 72 hrs by Western cellular assay. The following applies: A-375, 72 h. Type of experiment: cell-based.

As a reminder, the DC50 is the concentration giving 50% degradation. As for `Cc1ncsc1-c1ccc([C@H](C)NC(=O)[C@@H]2C[C@@H](O)CN2C(=O)[C@@H](NC(=O)CN2CCC(CN3CCN(c4ccc(-c5cnc6[nH]cc(C(=O)c7c(F)ccc(NS(=O)(=O)N8CC[C@@H](F)C8)c7F)c6c5)cc4)CC3)CC2)C(C)(C)C)cc1`, the %max with A-375 is greater than 70%. Moreover, the DC50 in experiment [1] is less than 10 nM.

On to `Cc1ncsc1-c1ccc(CNC(=O)[C@@H]2C[C@@H](O)CN2C(=O)[C@@H](NC(=O)CN2CCN(CC3CCN(c4ccc(-c5cnc6[nH]cc(C(=O)c7c(F)ccc(NS(=O)(=O)N8CC[C@@H](F)C8)c7F)c6c5)cc4)CC3)CC2)C(C)(C)C)cc1`, for which the %max with A-375 was greater than 70%. For the same compound, the DC50 in experiment [1] was less than 10 nM.

With `Cc1ncsc1-c1ccc(CNC(=O)[C@@H]2C[C@@H](O)CN2C(=O)[C@@H](c2cc(OCCN3CCN(c4ccc(-c5cnc6[nH]cc(C(=O)c7c(F)ccc(NS(=O)(=O)N8CC[C@@H](F)C8)c7F)c6c5)cc4)CC3)no2)C(C)C)cc1`, the %max in the experiment with A-375 was greater than 70%. Also, the DC50 in experiment [1] is less than 10 nM.

`Cc1ncsc1-c1ccc(CNC(=O)[C@@H]2C[C@@H](O)CN2C(=O)[C@@H](NC(=O)CN2CC(N3CCN(c4ccc(-c5cnc6[nH]cc(C(=O)c7c(F)ccc(NS(=O)(=O)N8CC[C@@H](F)C8)c7F)c6c5)cc4)CC3)C2)C(C)(C)C)cc1`: in the experiment on A-375, the %max is greater than 70%. For the same compound, the DC50 in experiment [1] was less than 10 nM.

As to `O=C1CCC(N2Cc3cc(CCCN4CCC5(C4)CN(c4ccc(-c6cnc7[nH]cc(C(=O)c8c(F)ccc(NS(=O)(=O)N9CC[C@@H](F)C9)c8F)c7c6)cc4)C5)ccc3C2=O)C(=O)N1` (some centres undefined), in the experiment on A-375, the %max is less than 70%. For the same compound, the DC50 in experiment [1] is less than 10 nM.

For `O=C1CCC(N2Cc3cc(N4CC(N5CCN(c6ccc(-c7cnc8[nH]cc(C(=O)c9c(F)ccc(NS(=O)(=O)N%10CC[C@@H](F)C%10)c9F)c8c7)cc6)CC5)C4)ccc3C2=O)C(=O)N1` (some centres undefined), the %max in the experiment on A-375 is less than 70%. In addition, in experiment [1], the DC50 was less than 10 nM.

As for `O=C1CCC(N2Cc3cc(N4CC[C@@H](N5CCN(c6ccc(-c7cnc8[nH]cc(C(=O)c9c(F)ccc(NS(=O)(=O)N%10CC[C@@H](F)C%10)c9F)c8c7)cc6)CC5)C4)ccc3C2=O)C(=O)N1` (some centres undefined), the %max in the experiment with A-375 was less than 70%. Also, the DC50 in experiment [1] is less than 10 nM.

As for `O=C1CCC(N2Cc3cc(N4CC(OCC5CCN(c6ccc(-c7cnc8[nH]cc(C(=O)c9c(F)ccc(NS(=O)(=O)N%10CC[C@@H](F)C%10)c9F)c8c7)cc6)CC5)C4)ccc3C2=O)C(=O)N1` (some centres undefined), the %max in the experiment with A-375 was less than 70%. Also, the DC50 in experiment [1] was less than 10 nM.

Take `O=C1CCC(N2Cc3cc(/C=C/CN4CCN(c5ccc(-c6cnc7[nH]cc(C(=O)c8c(F)ccc(NS(=O)(=O)N9CC[C@@H](F)C9)c8F)c7c6)cc5)CC4)ccc3C2=O)C(=O)N1` (some centres undefined): in the experiment on A-375, the %max was less than 70%. The DC50 in experiment [1] is less than 10 nM.

For the compound `O=C1CCC(N2Cc3cc(N4CCN(Cc5ccc(-c6cnc7[nH]cc(C(=O)c8c(F)ccc(NS(=O)(=O)N9CC[C@@H](F)C9)c8F)c7c6)cc5)CC4)ccc3C2=O)C(=O)N1` (some centres undefined), the %max with A-375 is greater than 70%. In addition, the DC50 in experiment [1] was less than 10 nM.

Consider `Cc1ncsc1-c1ccc(CNC(=O)[C@@H]2C[C@@H](O)CN2C(=O)[C@@H](NC(=O)CN2CCC(CN3CCN(c4ccc(-c5cnc6[nH]cc(C(=O)c7c(F)ccc(NS(=O)(=O)N8CC[C@@H](F)C8)c7F)c6c5)cc4)CC3)CC2)C(C)(C)C)cc1`, for which the %max with A-375 was greater than 70%. In addition, the DC50 in experiment [1] was less than 10 nM.

As to `Cc1ncsc1-c1ccc([C@H](CO)NC(=O)[C@@H]2C[C@@H](O)CN2C(=O)[C@@H](c2cc(N3CCC(N4CCN(c5ccc(-c6cnc7[nH]cc(C(=O)c8c(F)ccc(NS(=O)(=O)N9CC[C@@H](F)C9)c8F)c7c6)cc5)CC4)CC3)no2)C(C)C)cc1`, in the experiment on A-375, the %max was greater than 70%. For the same compound, the DC50 in experiment [1] fell in the range of 10 to 50 nM.
